According to patent US20200289554A1, “BIOORTHOGONAL COMPOUNDS COMPRISING A PROPARGYL GROUP FOR TREATING CANCER” (THE UNIVERSITY COURT OF THE UNIVERSITY OF EDINBURGH, priority 2016, published 2020):

Legend:
T98 cells = assay: Prodrug safety dose-response cell viability (PrestoBlue), T98; type: cell-based; settings: Homo sapiens, 120 h, 5 days, no catalyst
Experimental: (§1) These cell lines were selected as these are primary malignancies against which the parental drugs are currently prescribed.
(§2) The toxicities of each active agent and prodrugs were compared by performing dose-response studies. […] Cell viability was analysed by fluoresce intensity (λex=540 nm; λem=590 nm) after 60-90 min incubation with PrestoBlue™ Reagent (Life Technologies).

U87G cells [1] = assay: BOOM conversion: prodrug + Pd0-resins in cell culture, cell viability, U87G; type: cell-based, human; settings: Homo sapiens, 120 h, prodrug in combination with Pd0-resins 0.8 mg/mL, 5 days, read-out: EC50, prodrug + Pd-resins
Experimental: Following 5 days treatment, cells were incubated with PrestoBlue™ Cell Viability Reagent (Life Technologies) for 60-90 min. Fluorescence intensity values were related to the untreated cells (100% cell viability). […] Cells incubated in 0.1% (v/v) DMSO in media were used as untreated cell control.
The toxigenic effect as a result of in situ generation of parental drug in cell culture was determined by incubating all cells in tissue culture media containing 0.1% (v/v) DMSO and a) Pd^0, Au, or Pd/Au-resin (1 mg/mL for all cells tested, negative control); b) prodrug (negative control); or c) Pd^0, Au, or Pd/Au-resin (1 mg/mL for all cells)+prodrug (reaction assay). Cells incubated in 0.1% (v/v) DMSO in media was used as an untreated cell reference standard (100% viability). A PrestoBlue® cell viability assay as described above was carried out and fluorescent intensities compared to the untreated cell control.
A dose response study was performed for each cell line keeping the quantity of Pd^0 resin constant (0.8 mg/mL for U87G and 1 mg/mL for the rest of cell lines). […] Fluorescence intensity values (detected using a PerkinElmer EnVision 2101 multilabel reader with excitation filter at 540 nm and emissions filter at 590 nm) were determined relative to the untreated cell control.

A549 cells = assay: Prodrug safety dose-response cell viability (PrestoBlue), A549; type: cell-based; settings: Homo sapiens, 120 h, 5 days, no catalyst
Experimental: as §1, §2

U87G cells [2] = assay: Prodrug safety dose-response cell viability (PrestoBlue), U87G; type: cell-based, human; settings: Homo sapiens, 120 h; U87G cells, 5 days, no catalyst; read-out: EC50 (cell viability)
Experimental: as §1, §2

EC50 (U87G cells [1]): 24.7 µM
SMILES: C#CCOc1ccc(CONC(=O)CCCCCCC(=O)Nc2ccccc2)cc1 [POB-Vor, Propargyloxybenzyl-Vorinostat]
EC50 (T98 cells): > 500 µM
EC50 (A549 cells): > 500 µM
EC50 (U87G cells [2]): > 500 µM
